Assays:
[1] = target: T1, acetylcholinesterase (AChE) from electric eel (Electrophorus electricus, UniProt O42275); assay: AChE inhibition, spectrophotometric Ellman's method; assay type: biochemical, Electrophorus electricus L.; conditions: for IC50: electric eel AChE, Ellman's method, mean ± SD (n = 3 experiments); for AChE inhibition, fold higher than RIV: IC50 compared with rivastigmine
T1 construct: purchased Sigma
Experimental: The ability of the tested compounds to inhibit acetylcholinesterase (purchased from Sigma) from electric eel (Electrophorus electricus L.) was tested. […] The IC50 values were determined by the spectrophotometric Ellman’s method.
The IC50 values were determined using the spectrophotometric Ellman’s method, which is a simple, rapid and direct method to determine the SH and -S-S- group content in proteins. This method is widely used for measuring of cholinesterase activity and effectivity of cholinesterase inhibitors. Cholinesterase activity is measured indirectly by quantifying the concentration of 5-thio-2-nitrobenzoic acid (TNB) ion formed in the reaction between the thiol reagent 5,5′-dithiobis-2-nitrobenzoic acid (DTNB) and thiocholine, a product of substrate (i.e., acetylthiocholine, ATCh) hydrolysis by cholinesterase. All tested compounds were dissolved in dioxane (concentration 0.01 M) and then diluted in demineralised water (concentration 0.001 M and 0.0001 M). The procedure of determination of IC50 is a slightly modified Ellman’s method according to Zdrazilova and described in detail in [49]. For determination of IC50 values the inhibition was determined for 25 different compound concentrations with three replicates.

[2] = Lipophilicity determination by RP-HPLC (capacity factor k / log k); assay type: physicochemical; conditions: Symmetry C18, MeOH 70% / H2O 30%, column 45 °C
Text: A Waters Alliance 2695 XE HPLC separation module and a Waters Photodiode Array Detector 2996 (Waters Corp., Milford, MA, USA) were used. A Symmetry® C18 5 μm, 4.6 × 250 mm chromatographic column, Part No. WAT054275 (Waters Corp., Milford, MA, USA) was used. The HPLC separation process was monitored by Empower™ 2 Chromatography Data Software, Waters 2009 (Waters Corp., Milford, MA, USA). A mixture of MeOH p.a. (70%) and H2O-HPLC–Mili-Q Grade (30%) was used as a mobile phase. The total flow of the column was 1.0 mL/min, injection volume, 30 μL, column temperature, 45 °C and sample temperature, 10 °C. The detection wavelength of 210 nm was chosen. The KI methanolic solution was used for the dead time (tD) determination. The retention times (tR) were measured in minutes. The capacity factors k were calculated using the Empower™ 2 Chromatography Data Software according to formula k = (tR− tD)/tD, where tR is the retention time of the solute, whereas tD denotes the dead time obtained using an unretained analyte. Log k, calculated from the capacity factor k, is used as the lipophilicity index converted to log P scale.

T1 sequence (O42275 24-633): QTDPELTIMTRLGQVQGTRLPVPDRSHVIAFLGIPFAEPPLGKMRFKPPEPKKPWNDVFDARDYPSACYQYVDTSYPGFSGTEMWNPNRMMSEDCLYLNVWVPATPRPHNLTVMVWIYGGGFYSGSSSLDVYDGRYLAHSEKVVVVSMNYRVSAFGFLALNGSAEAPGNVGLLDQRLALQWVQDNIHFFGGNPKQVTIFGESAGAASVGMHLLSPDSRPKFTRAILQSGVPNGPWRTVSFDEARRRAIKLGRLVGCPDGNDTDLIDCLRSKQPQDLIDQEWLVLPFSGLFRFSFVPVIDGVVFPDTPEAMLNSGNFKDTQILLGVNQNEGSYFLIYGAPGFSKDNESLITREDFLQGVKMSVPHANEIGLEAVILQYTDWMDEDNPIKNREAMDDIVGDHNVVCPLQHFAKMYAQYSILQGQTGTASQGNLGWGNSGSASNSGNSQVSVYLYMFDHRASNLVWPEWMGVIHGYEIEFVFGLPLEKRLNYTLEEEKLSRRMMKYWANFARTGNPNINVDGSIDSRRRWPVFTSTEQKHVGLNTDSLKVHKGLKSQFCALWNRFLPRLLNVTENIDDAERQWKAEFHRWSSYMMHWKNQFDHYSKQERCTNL

Compound	IC50 [1] [µM]	log k [2]	AChE inhibition, fold higher than RIV [1] [fold]
CCCCCCNC(=O)Oc1ccc(Cl)cc1C(=O)Nc1ccc(Cl)c(Cl)c1 [6d]	41.2 ± 0.36	1.0611	–
CCNC(=O)Oc1ccc(Cl)cc1C(=O)Nc1ccc(Cl)cc1 [5a]	59.1 ± 0.33	0.7695	–
CCCCNC(=O)Oc1ccc(Cl)cc1C(=O)Nc1ccc(Cl)cc1 [5b]	48.1 ± 0.31	0.7759	–
CCCCCCCCCNC(=O)Oc1ccc(Cl)cc1C(=O)Nc1ccc(Cl)cc1 [5g]	52.2 ± 0.39	0.7919	–
CCCCCNC(=O)Oc1ccc(Cl)cc1C(=O)Nc1ccc(Cl)c(Cl)c1 [6c]	56 ± 0.42	1.0601	–
CCCCCCCNC(=O)Oc1ccc(Cl)cc1C(=O)Nc1ccc(Cl)cc1 [5e]	49.4 ± 0.31	0.7872	–
CCCCCCCCCCCNC(=O)Oc1ccc(Cl)cc1C(=O)Nc1ccc(Cl)c(Cl)c1 [6i]	29.9 ± 0.22	1.0903	16
CCCCCCCCCCCNC(=O)Oc1ccc(Cl)cc1C(=O)Nc1ccc(Cl)cc1 [5i]	44.3 ± 0.33	0.7947	–
CCCCCCCCCCNC(=O)Oc1ccc(Cl)cc1C(=O)Nc1ccc(Cl)c(Cl)c1 [6h]	21.8 ± 0.2	1.0894	23
CCCCCCCCCCCNC(=O)Oc1ccc(Cl)cc1C(=O)Nc1cccc(Cl)c1 [4i]	56.9 ± 0.48	0.7902	–
CCCCCCNC(=O)Oc1ccc(Cl)cc1C(=O)Nc1ccc(Cl)cc1 [5d]	31 ± 0.29	0.7859	–
CCCCCCCNC(=O)Oc1ccc(Cl)cc1C(=O)Nc1ccc(Cl)c(Cl)c1 [6e]	36.7 ± 0.28	1.0667	–
CCCCNC(=O)Oc1ccc(Cl)cc1C(=O)Nc1cccc(Cl)c1 [4b]	–	0.7611	–
CCCCNC(=O)Oc1ccc(Cl)cc1C(=O)Nc1ccc(Cl)c(Cl)c1 [6b]	64.7 ± 0.79	1.0457	–
CCCCCCCNC(=O)Oc1ccc(Cl)cc1C(=O)Nc1cccc(Cl)c1 [4e]	61.7 ± 0.5	0.7772	–
CCCCCCCCCCNC(=O)Oc1ccc(Cl)cc1C(=O)Nc1cccc(Cl)c1 [4h]	52.7 ± 0.45	0.7873	–
CCNC(=O)Oc1ccc(Cl)cc1C(=O)Nc1cccc(Cl)c1 [4a]	–	0.7523	–
CCCCCCCCCNC(=O)Oc1ccc(Cl)cc1C(=O)Nc1cccc(Cl)c1 [4g]	34.2 ± 0.26	0.7837	–
CCCCCCNC(=O)Oc1ccc(Cl)cc1C(=O)Nc1cccc(Cl)c1 [4d]	35.1 ± 0.31	0.7758	–
CCCCCCCCCCNC(=O)Oc1ccc(Cl)cc1C(=O)Nc1ccc(Cl)cc1 [5h]	64.6 ± 0.41	0.7942	–
CCCCCCCCNC(=O)Oc1ccc(Cl)cc1C(=O)Nc1cccc(Cl)c1 [4f]	69.9 ± 0.49	0.7831	–
CCCCCCCCNC(=O)Oc1ccc(Cl)cc1C(=O)Nc1ccc(Cl)cc1 [5f]	62.5 ± 0.41	0.7899	–
CCCCCNC(=O)Oc1ccc(Cl)cc1C(=O)Nc1cccc(Cl)c1 [4c]	50.4 ± 0.48	0.7732	–
CCCCCCCCCNC(=O)Oc1ccc(Cl)cc1C(=O)Nc1ccc(Cl)c(Cl)c1 [6g]	43.9 ± 0.32	1.0880	–
CCCCCCCCNC(=O)Oc1ccc(Cl)cc1C(=O)Nc1ccc(Cl)c(Cl)c1 [6f]	32.1 ± 0.29	1.0845	–
CCCCCNC(=O)Oc1ccc(Cl)cc1C(=O)Nc1ccc(Cl)cc1 [5c]	41.7 ± 0.29	0.7838	–
CCNC(=O)Oc1ccc(Cl)cc1C(=O)Nc1ccc(Cl)c(Cl)c1 [6a]	67.3 ± 0.52	1.0234	–

From publication PMC6268027, “Acetylcholinesterase-Inhibiting Activity of Salicylanilide N-Alkylcarbamates and Their Molecular Docking” (Molecules, 2012)
